According to PubChem BioAssay AID2060605 (Molecular Pharmacology Branch, DTP, NCI, 2025):

Test system: 947758-054-R-J2-PDC spheroid growth, percent test/control
Experiment: Anticancer human tumor 947758-054-R-J2-PDC patient-derived colon adenocarcinoma cell line growth inhibition [CLK]
Details: spheroids with HUVEC and MSC; for IC50: curve of first compound; for viability, T/C: stronger effect = lower value
Outline: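 Patient-derived tumor cells grown as complex spheroids with HUVEC endothelial cells and mesenchymal stem cells, treated with drug combinations. Concentrations descend in half-log steps from near clinical Cmax, or from 10 microM if Cmax unknown.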

[1] = second compound 0.0316 µM, first compound 0.00316 µM
[2] = second compound 0.0316 µM, first compound 0.01 µM
[3] = second compound 0.0316 µM, first compound 0.0316 µM
[4] = second compound 0.0316 µM, first compound 0.1 µM
[5] = second compound 0.0316 µM, first compound 0.316 µM
[6] = second compound 0.0316 µM, first compound 1 µM
[7] = second compound 0.1 µM, first compound 0.00316 µM
[8] = second compound 0.1 µM, first compound 0.01 µM
[9] = second compound 0.1 µM, first compound 0.0316 µM
[10] = second compound 0.1 µM, first compound 0.1 µM
[11] = second compound 0.1 µM, first compound 0.316 µM
[12] = second compound 0.1 µM, first compound 1 µM
[13] = second compound 0.316 µM, first compound 0.00316 µM
[14] = second compound 0.316 µM, first compound 0.01 µM
[15] = second compound 0.316 µM, first compound 0.0316 µM
[16] = second compound 0.316 µM, first compound 0.1 µM
[17] = second compound 0.316 µM, first compound 0.316 µM
[18] = second compound 0.316 µM, first compound 1 µM
[19] = second compound 1 µM, first compound 0.00316 µM
[20] = second compound 1 µM, first compound 0.01 µM
[21] = second compound 1 µM, first compound 0.0316 µM
[22] = second compound 1 µM, first compound 0.1 µM
[23] = second compound 1 µM, first compound 0.316 µM
[24] = second compound 1 µM, first compound 1 µM
[25] = second compound 3.16 µM, first compound 0.00316 µM
[26] = second compound 3.16 µM, first compound 0.01 µM
[27] = second compound 3.16 µM, first compound 0.0316 µM
[28] = second compound 3.16 µM, first compound 0.1 µM
[29] = second compound 3.16 µM, first compound 0.316 µM
[30] = second compound 3.16 µM, first compound 1 µM
[31] = second compound 10 µM, first compound 0.00316 µM
[32] = second compound 10 µM, first compound 0.01 µM
[33] = second compound 10 µM, first compound 0.0316 µM
[34] = second compound 10 µM, first compound 0.1 µM
[35] = second compound 10 µM, first compound 0.316 µM
[36] = second compound 10 µM, first compound 1 µM
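Also: spheroids exposed to compounds for one week before readout.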
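For viability, T/C in this document: 100% = DMSO vehicle control wells.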

CCN1CCN(Cc2ccc(Nc3ncc(F)c(-c4cc(F)c5nc(C)n(C(C)C)c5c4)n3)nc2)CC1 + CN1CCN(c2cc(C(=O)Nc3cc4cc(-c5cnn(C)c5)ccc4cn3)ccn2)CC1
IC50 (second compound 0.0316 µM): > 1000 nM
IC50 (second compound 0.1 µM): 461 nM
IC50 (second compound 0.316 µM): < 3.16 nM
IC50 (second compound 1 µM): < 3.16 nM
IC50 (second compound 3.16 µM): < 3.16 nM
IC50 (second compound 10 µM): < 3.16 nM
viability, T/C [1]: 145%
viability, T/C [2]: 133%
viability, T/C [3]: 176%
viability, T/C [4]: 245%
viability, T/C [5]: 98.2%
viability, T/C [6]: 46.5%
viability, T/C [7]: 134%
viability, T/C [8]: 141%
viability, T/C [9]: 105%
viability, T/C [10]: 108%
viability, T/C [11]: 52.7%
viability, T/C [12]: 32.8%
viability, T/C [13]: 4.74%
viability, T/C [14]: 7.5%
viability, T/C [15]: 5.93%
viability, T/C [16]: 9.21%
viability, T/C [17]: 14.7%
viability, T/C [18]: 13.2%
viability, T/C [19]: 0.18%
viability, T/C [20]: 2.83%
viability, T/C [21]: 0.19%
viability, T/C [22]: 0.19%
viability, T/C [23]: 0.18%
viability, T/C [24]: 2.66%
viability, T/C [25]: 0.83%
viability, T/C [26]: 0.69%
viability, T/C [27]: 0.21%
viability, T/C [28]: 0.28%
viability, T/C [29]: 2.63%
viability, T/C [30]: 3.69%
viability, T/C [31]: 0.27%
viability, T/C [32]: 1.7%
viability, T/C [33]: 0.31%
viability, T/C [34]: 0.4%
viability, T/C [35]: 0.75%
viability, T/C [36]: 2.67%

COc1c(OCCCN2CCOCC2)ccc2c3n(c(=NC(=O)c4cnc(N)nc4)nc12)CCN3 + CN1CCN(c2cc(C(=O)Nc3cc4cc(-c5cnn(C)c5)ccc4cn3)ccn2)CC1
IC50 (second compound 0.0316 µM): 184 nM
IC50 (second compound 0.1 µM): 29 nM
IC50 (second compound 0.316 µM): < 3.16 nM
IC50 (second compound 1 µM): < 3.16 nM
IC50 (second compound 3.16 µM): < 3.16 nM
IC50 (second compound 10 µM): < 3.16 nM
viability, T/C [1]: 157%
viability, T/C [2]: 133%
viability, T/C [3]: 90.8%
viability, T/C [4]: 75.6%
viability, T/C [5]: 28.7%
viability, T/C [6]: 18.1%
viability, T/C [7]: 188%
viability, T/C [8]: 147%
viability, T/C [9]: 40.3%
viability, T/C [10]: 33.4%
viability, T/C [11]: 17.9%
viability, T/C [12]: 10%
viability, T/C [13]: 7.04%
viability, T/C [14]: 6.09%
viability, T/C [15]: 3.95%
viability, T/C [16]: 2.44%
viability, T/C [17]: 0.75%
viability, T/C [18]: 1%
viability, T/C [19]: 0.16%
viability, T/C [20]: 0.18%
viability, T/C [21]: 0.15%
viability, T/C [22]: 0.1%
viability, T/C [23]: 1.96%
viability, T/C [24]: 1.55%
viability, T/C [25]: 0.48%
viability, T/C [26]: 0.95%
viability, T/C [27]: 0.19%
viability, T/C [28]: 0.15%
viability, T/C [29]: 1.63%
viability, T/C [30]: 2.02%
viability, T/C [31]: 0.31%
viability, T/C [32]: 3.4%
viability, T/C [33]: 0.32%
viability, T/C [34]: 0.27%
viability, T/C [35]: 1.44%
viability, T/C [36]: 1.28%
